Patent US4873263A, “Rectally absorbable form of L-dopa” (priority 1988, dated 1989)
Where a name gives a salt, the structure may show the parent alone. Read-outs that look alike come from different tables or passages of the source.

Tests used:
[1] = Rat plasma L-dopa and bioavailability after rectal microenema with carbidopa (Example 2); set-up: species or system rats; settings: in vivo
Method: The experimental conditions of Example 1 were repeated, except that each formulation also contained 0.5 mg carbidopa, a decarboxylase inhibitor which is included to decrease L-dopa metabolism.

[2] = dog, in vivo; cited from earlier work
[3] = rat, in vivo
Method: Aqueous microenemas (250 μl) containing either 2.0 mg L-dopa or 2.66 mg L-dopa ethyl ester HCl (equivalent to 2.0 mg L-dopa) were prepared. The solutions were adjusted to pH 5.5 and contained 0.02% ascorbic acid to prevent oxidation. Blood samples were collected following rectal administration to anesthetized rats, and plasma L-dopa determined by HPLC.

[4] = L-dopa bioavailability in Beagle dogs after rectal administration, oral carbidopa pretreatment (Example 3); type: in vivo; settings: in words
Method: Aqueous formulations (pH 5.5, 0.1% ascorbic acid, 0.1 ml) containing […] L-dopa ethyl ester HCl (equivalent to 50 mg L-dopa) were prepared for administration to Beagle dogs. Each dog received the rectal formulation following a 3-day pretreatment with oral carbidopa (25 mg b.i.d.). Blood samples were collected for 360 minutes and plasma L-dopa levels determined by HPLC.

Percent L-dopa Bioavailability [1]: 62 ± 32.7%
Percent L-dopa Bioavailability [3]: 12 ± 2.4%
SMILES: CCOC(=O)[C@@H](N)Cc1ccc(O)c(O)c1 [L-dopa ethyl ester HCl]
absorption by the rectal route in dogs [2]: not significantly absorbed in dogs
plasma levels of L-dopa [3]: significantly higher plasma levels of L-dopa
plasma drug levels [4]: significant increase in plasma drug levels
